Measurements published in patent US9655363B2, “Microbiocides” (Syngenta Participations AG, priority 2013, dated 2017).

Assays:
[1] = test system: Puccinia Recondita f. sp. Tritici; assay: Puccinia recondita f. sp. tritici / wheat / leaf disc curative (brown rust); format: in vivo; conditions: foliar, 192 h, compared to untreated, 8 days after inoculation, read-out: disease control
Method: Fungicidal Activity Against Puccinia Recondita f. sp. Tritici/Wheat/Leaf Disc Curative (Brown Rust) Wheat leaf segments are placed on agar in multiwell plates (24-well format). The leaf disks are then inoculated with a spore suspension of the fungus. One day after inoculation the test solution is applied. After appropriate incubation the activity of a compound is assessed 8 dpi (days after inoculation) as curative fungicidal activity. Dose range: 200-22 ppm.

[2] = test system: Mycosphaerella Graminicola (Septoria Tritici); assay: Mycosphaerella graminicola (Septoria tritici) / liquid culture (Septoria blotch); format: cell-based; conditions: Zymoseptoria tritici, liquid culture (PDB), growth inhibition photometrically 4-5 days after application, read-out: disease control
Method: Fungicidal Activity Against Mycosphaerella Graminicola (Septoria Tritici)/Liquid Culture (Septoria Blotch) Conidia of the fungus from cryogenic storage were directly mixed into nutrient broth (PDB potato dextrose broth). After placing a (DMSO) solution of test compound into a microtiter plate (96-well format), the nutrient broth containing the fungal spores was added. The test plates were incubated at 24° C. and the inhibition of growth was determined photometrically 4-5 days after application.

[3] = test system: Mycosphaerella Arachidis (Cercospora Arachidicola); assay: Mycosphaerella arachidis (Cercospora arachidicola) / liquid culture (early leaf spot); format: cell-based; conditions: liquid culture (PDB), growth inhibition photometrically 4-5 days after application, read-out: disease control
Method: Fungicidal Activity Against Mycosphaerella Arachidis (Cercospora Arachidicola)/Liquid Culture (Early Leaf Spot) Conidia of the fungus from cryogenic storage were directly mixed into nutrient broth (PDB potato dextrose broth). After placing a (DMSO) solution of test compound into a microtiter plate (96-well format), the nutrient broth containing the fungal spores was added. The test plates were incubated at 24° C. and the inhibition of growth was determined photometrically 4-5 days after application.

[4] = test system: Blumeria Graminis f. sp. Tritici (Erysiphe Graminis f. sp. Tritici); assay: Blumeria graminis f. sp. tritici / wheat / leaf disc preventative (powdery mildew on wheat); format: in vivo; conditions: foliar, wheat leaf disc cv. Kanzler, compared to untreated, 6-8 days after application, read-out: disease control
Method: Fungicidal Activity Against Blumeria Graminis f. sp. Tritici (Erysiphe Graminis f. sp. Tritici)/Wheat/Leaf Disc Preventative (Powdery Mildew on Wheat) Wheat leaf segments cv. Kanzler were placed on agar in a multiwell plate (24-well format) and sprayed with the formulated test compound diluted in water. The leaf disks were inoculated by shaking powdery mildew infected plants above the test plates 1 day after application. The inoculated leaf disks were incubated at 20° C. and 60% rh under a light regime of 24 h darkness followed by 12 h light/12 h darkness in a climate chamber and the activity of a compound was assessed as percent disease control compared to untreated when an appropriate level of disease damage appears on untreated check leaf segments (6-8 days after application).

[5] = test system: Thanatephorus Cucumeris (Rhizoctonia Solani); assay: Thanatephorus cucumeris (Rhizoctonia solani) / liquid culture (foot rot, damping-off); format: cell-based; conditions: liquid culture (PDB), growth inhibition photometrically 3-4 days after application, read-out: disease control
Method: Fungicidal Activity Against Thanatephorus Cucumeris (Rhizoctonia Solani)/Liquid Culture (Foot Rot, Damping-Off) Mycelia fragments of a newly grown liquid culture of the fungus were directly mixed into nutrient broth (PDB potato dextrose broth). After placing a (DMSO) solution of the test compounds into a microtiter plate (96-well format), the nutrient broth containing the fungal material was added. The test plates were incubated at 24° C. and the inhibition of growth was determined photometrically 3-4 days after application. Compounds (from table T1) 1, 2, 4, 7, 8, 10, 11, 13, 14 and 17 at 200 ppm give at least 80% disease control in this test when compared to untreated control leaf disks under the same conditions, which show extensive disease development.

[6] = test system: Puccinia Recondita f. sp. Tritici; assay: Puccinia recondita f. sp. tritici / wheat / leaf disc preventative (brown rust); format: in vivo; conditions: foliar, wheat leaf disc cv. Kanzler, compared to untreated, 7-9 days after application, read-out: disease control
Method: Fungicidal Activity Against Puccinia Recondita f. sp. Tritici/Wheat/Leaf Disc Preventative (Brown Rust) Wheat leaf segments cv. Kanzler were placed on agar in multiwell plates (24-well format) and sprayed with the formulated test compound diluted in water. The leaf disks were inoculated with a spore suspension of the fungus 1 day after application. The inoculated leaf segments were incubated at 19° C. and 75% rh under a light regime of 12 h light/12 h darkness in a climate cabinet and the activity of a compound was assessed as percent disease control compared to untreated when an appropriate level of disease damage appears in untreated check leaf segments (7-9 days after application).

OC(Cn1cncn1)(c1ccc(F)cc1)C1(c2ncc(Br)cc2Cl)CC1 (stereo not shown) [Compound 2, 1-[1-(5-bromo-3-chloro-2-pyridyl)cyclopropyl]-1-(4-fluorophenyl)-2-(1,2,4-triazol-1-yl)ethanol]
≥ 80%: pest or weed control at 200 ppm [1] | inhibition of growth at 200 ppm [2] | inhibition of growth at 200 ppm [3] | pest or weed control at 200 ppm [4] | inhibition of growth at 200 ppm [5] | pest or weed control at 200 ppm [6]

OC(Cn1ccnc1)(c1ccc(F)cc1)C1(c2ncc(Br)cc2Cl)CC1 (stereo not shown) [Compound 5, 1-[1-(5-bromo-3-chloro-2-pyridyl)cyclopropyl]-1-(4-fluorophenyl)-2-imidazol-1-yl-ethanol]
≥ 80%: pest or weed control at 200 ppm [1] | pest or weed control at 200 ppm [4] | pest or weed control at 200 ppm [6]

OC(Cn1cncn1)(c1ccc(F)cc1)C1(c2ccc(Br)cn2)CC1 (stereo not shown) [Compound 4, 1-[1-(5-bromo-2-pyridyl)cyclopropyl]-1-(4-fluorophenyl)-2-(1,2,4-triazol-1-yl)ethanol]
≥ 80%: pest or weed control at 200 ppm [1] | inhibition of growth at 200 ppm [3] | pest or weed control at 200 ppm [4] | inhibition of growth at 200 ppm [5] | pest or weed control at 200 ppm [6]

OC(Cn1cncn1)(c1ccc(F)cc1)C1(c2ccc(Cl)nc2)CC1 (stereo not shown) [Compound 9, 1-[1-(6-chloro-3-pyridyl)cyclopropyl]-1-(4-fluorophenyl)-2-(1,2,4-triazol-1-yl)ethanol]
≥ 80%: pest or weed control at 200 ppm [1] | inhibition of growth at 200 ppm [2] | inhibition of growth at 200 ppm [3] | pest or weed control at 200 ppm [4] | pest or weed control at 200 ppm [6]

OC(Cn1cncn1)(c1ccc(Cl)cc1)C1(c2ccccn2)CC1 (stereo not shown) [Compound 1, 1-(4-chlorophenyl)-1-[1-(2-pyridyl)cyclopropyl]-2-(1,2,4-triazol-1-yl)ethanol]
≥ 80%: pest or weed control at 200 ppm [1] | inhibition of growth at 200 ppm [2] | inhibition of growth at 200 ppm [3] | pest or weed control at 200 ppm [4] | inhibition of growth at 200 ppm [5] | pest or weed control at 200 ppm [6]

OC(Cn1cncn1)(c1ccc(Cl)cc1)C1(c2ccc(Cl)cn2)CC1 (stereo not shown) [Compound 11, 1-(4-chlorophenyl)-1-[1-(5-chloro-2-pyridyl)cyclopropyl]-2-(1,2,4-triazol-1-yl)ethanol]
≥ 80%: pest or weed control at 200 ppm [1] | inhibition of growth at 200 ppm [2] | inhibition of growth at 200 ppm [3] | pest or weed control at 200 ppm [4] | inhibition of growth at 200 ppm [5] | pest or weed control at 200 ppm [6]

N#Cc1ccc(C2(C(O)(Cn3cncn3)c3ccc(F)cc3)CC2)nc1 (stereo not shown) [Compound 12, 6-[1-[1-(4-fluorophenyl)-1-hydroxy-2-(1,2,4-triazol-1-yl)ethyl]cyclopropyl]pyridine-3-carbonitrile]
≥ 80%: pest or weed control at 200 ppm [1] | inhibition of growth at 200 ppm [2] | pest or weed control at 200 ppm [4] | pest or weed control at 200 ppm [6]

OC(Cn1cncn1)(c1ccc(F)cc1)C1(c2ccc(-c3cccc(OC(F)(F)F)c3)cn2)CCC1 (stereo not shown) [Compound 18, 1-(4-fluorophenyl)-2-(1,2,4-triazol-1-yl)-1-[1-[5-[3-(trifluoromethoxy)phenyl]-2-pyridyl]cyclobutyl]ethanol]
≥ 80%: inhibition of growth at 200 ppm [2] | inhibition of growth at 200 ppm [3] | pest or weed control at 200 ppm [4]

OC(Cn1cncn1)(c1ccc(F)cc1)C1(c2ccc(-c3ccc(Cl)cc3F)cn2)CCC1 (stereo not shown) [Compound 19, 1-[1-[5-(4-chloro-2-fluoro-phenyl)-2-pyridyl]cyclobutyl]-1-(4-fluorophenyl)-2-(1,2,4-triazol-1-yl)ethanol]
≥ 80%: inhibition of growth at 200 ppm [2] | inhibition of growth at 200 ppm [3] | pest or weed control at 200 ppm [4]

OC(Cn1cncn1)(c1ccc(Cl)cc1)C1(c2ccc(Cl)cn2)CCC1 (stereo not shown) [Compound 16, 1-(4-chlorophenyl)-1-[1-(5-chloro-2-pyridyl)cyclobutyl]-2-(1,2,4-triazol-1-yl)ethanol]
≥ 80%: pest or weed control at 200 ppm [1] | inhibition of growth at 200 ppm [2] | inhibition of growth at 200 ppm [3] | pest or weed control at 200 ppm [4] | pest or weed control at 200 ppm [6]

OC(Cn1cncn1)(c1ccc(F)cc1)C1(c2ccc(Br)cn2)CCC1 (stereo not shown) [Compound 17, 1-[1-(5-bromo-2-pyridyl)cyclobutyl]-1-(4-fluorophenyl)-2-(1,2,4-triazol-1-yl)ethanol]
≥ 80%: pest or weed control at 200 ppm [1] | inhibition of growth at 200 ppm [2] | inhibition of growth at 200 ppm [3] | pest or weed control at 200 ppm [4] | inhibition of growth at 200 ppm [5] | pest or weed control at 200 ppm [6]

OC(Cn1cncn1)(c1ccc(F)cc1)C1(c2ccccn2)CC1 (stereo not shown) [Compound 10, 1-(4-fluorophenyl)-1-[1-(2-pyridyl)cyclopropyl]-2-(1,2,4-triazol-1-yl)ethanol]
≥ 80%: pest or weed control at 200 ppm [1] | inhibition of growth at 200 ppm [2] | inhibition of growth at 200 ppm [3] | pest or weed control at 200 ppm [4] | inhibition of growth at 200 ppm [5] | pest or weed control at 200 ppm [6]

OC(Cn1cncn1)(c1ccc(F)cc1)C1(c2ccc(C(F)(F)F)cn2)CC1 (stereo not shown) [Compound 13, 1-(4-fluorophenyl)-2-(1,2,4-triazol-1-yl)-1-[1-[5-(trifluoromethyl)-2-pyridyl]cyclopropyl]ethanol]
≥ 80%: pest or weed control at 200 ppm [1] | inhibition of growth at 200 ppm [2] | inhibition of growth at 200 ppm [3] | pest or weed control at 200 ppm [4] | inhibition of growth at 200 ppm [5] | pest or weed control at 200 ppm [6]

OC(Cn1cncn1)(c1ccc(F)cc1)C1(c2ccc(Br)c(-c3ccc(F)cc3)n2)CC1 (stereo not shown) [Compound 6, 1-[1-[5-bromo-6-(4-fluorophenyl)-2-pyridyl]cyclopropyl]-1-(4-fluorophenyl)-2-(1,2,4-triazol-1-yl)ethanol]
≥ 80%: pest or weed control at 200 ppm [1] | inhibition of growth at 200 ppm [3] | pest or weed control at 200 ppm [4] | pest or weed control at 200 ppm [6]

OC(Cn1ccnc1)(c1ccc(F)cc1)C1(c2ccc(Br)cn2)CC1 (stereo not shown) [Compound 3, 1-[1-(5-bromo-2-pyridyl)cyclopropyl]-1-(4-fluorophenyl)-2-imidazol-1-yl-ethanol]
≥ 80%: pest or weed control at 200 ppm [1] | pest or weed control at 200 ppm [4] | pest or weed control at 200 ppm [6]

OC(Cn1cncn1)(c1ccc(Cl)cc1)C1(c2ccccn2)CCCC1 (stereo not shown) [Compound 15, 1-(4-chlorophenyl)-1-[1-(2-pyridyl)cyclopentyl]-2-(1,2,4-triazol-1-yl)ethanol]
≥ 80%: pest or weed control at 200 ppm [1] | inhibition of growth at 200 ppm [2] | inhibition of growth at 200 ppm [3] | pest or weed control at 200 ppm [4] | pest or weed control at 200 ppm [6]
